Patent publication US5948796A, “Benzo[B]thiophene compounds, intermediates, formulations, and methods” (Eli Lilly and Company, priority 1997, dated 1999)
Where a name gives a salt, the structure may show the parent alone.

Key:
[1] = test system: ovariectomized (OVX) female Sprague Dawley rats, uterus; assay: Uterine weight in ovariectomized rats (post-menopausal model); format: in vivo; details: daily for 4 days, * p < 0.05
Procedure: (§1) In the examples illustrating the methods, a post-menopausal model was used in which effects of different treatments upon circulating lipids were determined.
(§2) Seventy-five day old female Sprague Dawley rats (weight range of 200 to 225 g) are obtained from Charles River Laboratories (Portage, Mich.). The animals are either bilaterally ovariectomized (OVX) or exposed to a Sham surgical procedure at Charles River Laboratories, and then shipped after one week. Upon arrival, they are housed in metal hanging cages in groups of 3 or 4 per cage and have ad libitum access to food (calcium content approximately 0.5%) and water for one week. Room temperature is maintained at 22.2°±1.7° C. with a minimum relative humidity of 40%. The photoperiod in the room is 12 hours light and 12 hours dark.
(§3) Dosing Regimen Tissue Collection. After a one week acclimation period (therefore, two weeks post-OVX) daily dosing with test compound is initiated. 17α-ethynyl estradiol or the test compound are given orally, unless otherwise stated, as a suspension in 1% carboxymethylcellulose or dissolved in 20% cyclodextrin. Animals are dosed daily for 4 days. Following the dosing regimen, animals are weighed and anesthetized with a ketamine: Xylazine (2:1, V:V) mixture and a blood sample is collected by cardiac puncture. The animals are then sacrificed by asphyxiation with CO2, the uterus is removed through a midline incision, and a wet uterine weight is determined.
(§4) In accordance with the above procedures, compounds of the present invention and ethynyl estradiol (EE2) in 20% hydroxypropyl β-cyclodextrin are orally administered to test animals.

Eosinophil peroxidase = assay: Uterine Eosinophil Peroxidase (EPO) Assay in ovariectomized rats; format: in vivo, female Sprague Dawley rats; details: daily for 4 days, OVX rats, * p < 0.05
Procedure: as §1, §2, §3
Uterine Eosinophil Peroxidase (EPO) Assay. Uteri are kept at 4° C. until time of enzymatic analysis. The uteri are then homogenized in 50 volumes of 50 mM Tris buffer (pH-8.0) containing 0.005% Triton X-100. Upon addition of 0.01% hydrogen peroxide and 10 mM O-phenylenediamine (final concentrations) in Tris buffer, increase in absorbance is monitored for one minute at 450 nm. The presence of eosonophils in the uterus is an indication of estrogenic activity of a compound. The maximal velocity of a 15 second interval is determined over the initial, linear portion of the reaction curve.
as §4

serum cholesterol = assay: Cholesterol Analysis (serum cholesterol in ovariectomized rats); format: in vivo, female Sprague Dawley rats; details: daily for 4 days, OVX rats, * p < 0.05
Procedure: as §1, §2, §3
Cholesterol Analysis. Blood samples are allowed to clot at ambient temperature for 2 hours, and serum is obtained following centrifugation for 10 minutes at 3000 rpm. Serum cholesterol is determined using a Boehringer Mannheim Diagnostics high performance cholesterol assay. Briefly, the cholesterol is oxidized to cholest-4-en-3-one and hydrogen peroxide. The hydrogen peroxide is then reacted with phenol and 4-aminophenazone in the presence of peroxidase to produce a p-quinone imine dye, which is read spectrophotemetrically at 500 nm. Cholesterol concentration is then calculated against a standard curve.
as §4

[2] = test system: MCF-7 breast adenocarcinoma cells; assay: MCF-7 Proliferation Assay; format: cell-based; details: Homo sapiens, MCF7; MCF-7 cells; 48 hours; tritiated thymidine pulse 4 hours
Procedure: As evidence of the current invention treat estrogen dependent cancer, the following assay was performed.
MCF-7 Proliferation Assay
MCF-7 breast adenocarcinoma cells (ATCC HTB 22) were maintained in MEM (minimal essential medium, phenol red-free, Sigma, St. Louis, Mo.) supplemented with 10% fetal bovine serum (FBS) (V/V), L-glutamine (2 mM), sodium pyruvate (1 mM), HEPES {(N-[2-hydroxyethyl]piperazine-N'-[2-ethanesulfonic acid]10 mM}, non-essential amino acids and bovine insulin (1 ug/mL) (maintenance medium). Ten days prior to assay, MCF-7 cells were switched to maintenance medium supplemented with 10% dextran coated charcoal stripped fetal bovine serum (DCC-FBS) assay medium) in place of 10% FBS to deplete internal stores of steroids. MCF-7 cells were removed from maintenance flasks using cell dissociation medium [Ca++/Mg++ free HBSS (phenol red-free) supplemented with 10 mM HEPES and 2 mM EDTA]. Cells were washed twice with assay medium and adjusted to 80,000 cells/mL. Approximately […] (8,000 cells) were added to flat-bottom microculture wells (Costar 3596) and incubated at 37° C. in a 5% CO2 humidified incubator for 48 hours to allow for cell adherence and equilibration after transfer. […] Samples were counted by liquid scintillation using a Wallac BetaPlace β counter. […]

| SMILES | Uterine Wt. (% Inc.), % increase versus the ovariectomized controls ([1]; dose printed "0." mg/kg PO) | Uterine EPO (Vmax) (Eosinophil peroxidase; dose printed "0." mg/kg PO) | Uterine Wt. (% Inc.), % increase versus the ovariectomized controls ([1]; 0.1 mg/kg PO) | Uterine Wt. (% Inc.), % increase versus the ovariectomized controls ([1]; 1 mg/kg PO) | Uterine Wt. (% Inc.), % increase versus the ovariectomized controls ([1]; 10 mg/kg PO) | Uterine EPO (Vmax) (Eosinophil peroxidase; 0.1 mg/kg PO) | Uterine EPO (Vmax) (Eosinophil peroxidase; 1 mg/kg PO) | Uterine EPO (Vmax) (Eosinophil peroxidase; 10 mg/kg PO) | Serum Cholesterol (% Dec.), decrease versus ovariectomized controls (serum cholesterol; 0.1 mg/kg PO) | Serum Cholesterol (% Dec.), decrease versus ovariectomized controls (serum cholesterol; 1 mg/kg PO) | Serum Cholesterol (% Dec.), decrease versus ovariectomized controls (serum cholesterol; 10 mg/kg PO) | IC50 [2] |
| --- | --- | --- | --- | --- | --- | --- | --- | --- | --- | --- | --- | --- |
| C#C[C@]1(O)CC[C@H]2[C@@H]3CCc4cc(O)ccc4[C@H]3CC[C@@]21C [EE2, 17α-ethynyl estradiol, reference compound] | 171.2% | 142.4 | – | – | – | – | – | – | – | – | – | – |
| COc1ccc(-c2sc3cc(C)ccc3c2C(=O)c2ccc(OCCN3CCCCC3)cc2)cc1 [Example 1, [2-(4-Methoxyphenyl)-6-methylbenzo[b]thien-3-yl}[4-[2-(1-piperdinyl)ethoxy]phenyl]methanone Hydrochloride] | – | – | -11.4% | -4.6% | 2.1% | 1.4 | 1.6 | 5.2 | -20.3% | 17.2% | 34.8% | 500 nM |
| Cc1ccc2c(C(=O)c3ccc(OCCN4CCCCC4)cc3)c(-c3ccc(O)cc3)sc2c1 [Example 2, [2-(4-Hydroxyphenyl)-6-methylbenzo[b]thien-3-yl}[4-[2-(1-piperdinyl)ethoxy]phenyl]methanone Hydrochloride] | – | – | -9.0% | 23.9% | 29.0% | 2.0 | 2.8 | 2.9 | 16.9% | 33.8% | 21.6% | 100 nM |
